Measured values from ChEMBL document CHEMBL3425402, “Discovery of β-D-2'-deoxy-2'-α-fluoro-4'-α-cyano-5-aza-7,9-dideaza adenosine as a potent nucleoside inhibitor of respiratory syncytial virus with excellent selectivity over mitochondrial RNA and DNA polymerases” (Bioorg Med Chem Lett, 2015).

Tests used:
[1] = Cytotoxicity against human MT4 cells assessed as cell viability after 5 days by Cell-Titer Glo assay; format: cell-based
[2] = Inhibition of RSV A2 RNA-dependent RNA polymerase expressed in human Hep2 cells using ATP, GTP, UTP, CTP and 1.5 uCi [alpha-32P] NTP as substrate assessed as reduction of total radiolabled transcript after 90 mins by agarose gel electrophoresis; parameters: species or system Human respiratory syncytial virus A2; details: hep-2
[3] = target: DNA-directed RNA polymerase, mitochondrial (Homo sapiens) (UniProt O00411); experiment: Inhibition of human mitochondrial RNA polymerase using 5'-32P-R12/D18 as RNA/DNA template assessed as single nucleotide incorporation rate at 500 uM after 0.17 to 30 mins by PAGE analysis
[4] = target: DNA polymerase subunit gamma-1/gamma-2 (Homo sapiens) (UniProt P54098+Q9UHN1); experiment: Inhibition of human mitochondrial DNA polymerase gamma large subunit/DNA polymerase gamma accessory subunit using 32P-D19/D36 as DNA primer/template assessed as single nucleotide incorporation rate at 100 uM after 5 to 90 mins by PAGE analysis relative to thymidine NTP; format: protein assay
[5] = Antiviral activity against RSV A2 infected in human Hep2 cells assessed as protection against virus-induced cytopathic effect after 4 days by Cell-Titer Glo assay; format: functional, cell-based; details: human respiratory syncytial virus, HEp-2, 96 h

Chain of DNA polymerase subunit gamma-1/gamma-2 (Homo sapiens) (P54098 whole entry, looked up): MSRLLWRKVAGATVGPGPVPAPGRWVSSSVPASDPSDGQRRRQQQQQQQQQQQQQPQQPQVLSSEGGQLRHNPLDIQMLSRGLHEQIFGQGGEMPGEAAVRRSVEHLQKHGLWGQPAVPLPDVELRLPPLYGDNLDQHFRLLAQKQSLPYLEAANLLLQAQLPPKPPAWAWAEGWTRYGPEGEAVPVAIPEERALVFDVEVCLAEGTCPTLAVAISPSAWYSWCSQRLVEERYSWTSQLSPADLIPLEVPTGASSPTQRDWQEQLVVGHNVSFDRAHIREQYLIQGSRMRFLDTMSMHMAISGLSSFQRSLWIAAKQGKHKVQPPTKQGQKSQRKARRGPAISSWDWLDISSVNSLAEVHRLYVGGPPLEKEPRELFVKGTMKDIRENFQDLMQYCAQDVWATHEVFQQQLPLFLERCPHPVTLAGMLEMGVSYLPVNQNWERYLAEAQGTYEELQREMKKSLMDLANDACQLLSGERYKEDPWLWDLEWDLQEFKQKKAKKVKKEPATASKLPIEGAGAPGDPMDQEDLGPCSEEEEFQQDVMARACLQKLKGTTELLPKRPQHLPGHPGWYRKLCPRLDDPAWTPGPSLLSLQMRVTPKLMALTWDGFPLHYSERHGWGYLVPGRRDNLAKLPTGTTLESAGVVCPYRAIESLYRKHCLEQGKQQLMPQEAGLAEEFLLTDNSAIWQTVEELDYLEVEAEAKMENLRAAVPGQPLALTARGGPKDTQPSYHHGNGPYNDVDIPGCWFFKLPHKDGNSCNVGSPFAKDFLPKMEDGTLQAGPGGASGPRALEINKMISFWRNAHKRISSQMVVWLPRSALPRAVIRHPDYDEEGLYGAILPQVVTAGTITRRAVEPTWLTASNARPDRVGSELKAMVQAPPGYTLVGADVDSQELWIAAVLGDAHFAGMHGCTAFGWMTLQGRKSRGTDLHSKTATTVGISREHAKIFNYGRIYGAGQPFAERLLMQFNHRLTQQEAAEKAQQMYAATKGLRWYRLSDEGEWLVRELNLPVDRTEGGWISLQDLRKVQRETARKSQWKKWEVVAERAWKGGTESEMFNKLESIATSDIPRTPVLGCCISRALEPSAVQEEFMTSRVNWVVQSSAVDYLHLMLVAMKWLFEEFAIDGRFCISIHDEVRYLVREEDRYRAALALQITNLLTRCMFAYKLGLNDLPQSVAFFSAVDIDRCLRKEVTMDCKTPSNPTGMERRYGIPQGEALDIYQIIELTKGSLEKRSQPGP
Chain of DNA polymerase subunit gamma-1/gamma-2 (Homo sapiens) (Q9UHN1 whole entry, looked up): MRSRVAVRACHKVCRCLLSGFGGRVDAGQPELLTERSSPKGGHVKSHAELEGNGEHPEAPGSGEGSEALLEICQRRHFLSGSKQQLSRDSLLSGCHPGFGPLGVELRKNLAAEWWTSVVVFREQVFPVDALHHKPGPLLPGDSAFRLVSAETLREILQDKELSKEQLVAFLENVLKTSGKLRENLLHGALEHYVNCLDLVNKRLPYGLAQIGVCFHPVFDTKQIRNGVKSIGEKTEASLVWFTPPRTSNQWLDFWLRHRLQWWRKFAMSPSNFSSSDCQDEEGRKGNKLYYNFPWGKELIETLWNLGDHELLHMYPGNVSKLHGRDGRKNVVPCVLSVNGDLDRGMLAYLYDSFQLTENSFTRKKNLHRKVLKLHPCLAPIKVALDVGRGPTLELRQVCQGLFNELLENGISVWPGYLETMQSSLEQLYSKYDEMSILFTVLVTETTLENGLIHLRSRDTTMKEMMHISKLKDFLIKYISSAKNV
Chain of DNA-directed RNA polymerase, mitochondrial (Homo sapiens) (O00411 whole entry): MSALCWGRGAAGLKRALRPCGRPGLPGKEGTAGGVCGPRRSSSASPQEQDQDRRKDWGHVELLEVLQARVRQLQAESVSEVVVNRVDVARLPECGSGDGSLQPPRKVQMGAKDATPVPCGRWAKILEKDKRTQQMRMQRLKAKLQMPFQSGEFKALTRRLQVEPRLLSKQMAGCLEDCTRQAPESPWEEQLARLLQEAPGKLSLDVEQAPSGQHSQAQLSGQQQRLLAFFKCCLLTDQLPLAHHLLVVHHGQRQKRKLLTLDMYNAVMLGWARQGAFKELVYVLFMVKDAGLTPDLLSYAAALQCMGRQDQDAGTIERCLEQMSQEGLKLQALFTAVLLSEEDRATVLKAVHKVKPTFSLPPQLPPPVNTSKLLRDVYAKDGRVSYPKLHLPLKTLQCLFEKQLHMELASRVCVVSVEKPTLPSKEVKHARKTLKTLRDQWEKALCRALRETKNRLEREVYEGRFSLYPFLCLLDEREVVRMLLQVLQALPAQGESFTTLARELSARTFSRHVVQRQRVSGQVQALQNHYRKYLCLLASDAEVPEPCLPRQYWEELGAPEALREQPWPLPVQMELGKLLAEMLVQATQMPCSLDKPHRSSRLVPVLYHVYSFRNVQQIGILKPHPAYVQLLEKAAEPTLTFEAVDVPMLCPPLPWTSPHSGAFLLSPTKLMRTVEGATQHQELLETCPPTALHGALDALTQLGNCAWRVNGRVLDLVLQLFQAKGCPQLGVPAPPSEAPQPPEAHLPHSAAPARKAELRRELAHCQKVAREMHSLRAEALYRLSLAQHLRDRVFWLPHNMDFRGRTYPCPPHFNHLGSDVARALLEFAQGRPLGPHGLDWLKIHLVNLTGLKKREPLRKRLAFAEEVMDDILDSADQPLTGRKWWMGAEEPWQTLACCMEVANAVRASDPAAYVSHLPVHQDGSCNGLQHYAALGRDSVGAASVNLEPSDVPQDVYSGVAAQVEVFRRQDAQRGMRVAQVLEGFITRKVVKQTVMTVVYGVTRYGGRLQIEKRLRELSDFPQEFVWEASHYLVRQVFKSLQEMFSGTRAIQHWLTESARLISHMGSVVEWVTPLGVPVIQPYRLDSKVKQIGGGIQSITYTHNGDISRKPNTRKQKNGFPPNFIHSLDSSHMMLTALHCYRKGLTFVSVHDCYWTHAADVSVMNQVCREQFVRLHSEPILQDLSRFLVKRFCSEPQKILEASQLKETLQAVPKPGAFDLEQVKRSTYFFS

Compound | IC50 [2] [µM] | inhibition [3] [%] | inhibition [4] [%] | CC50 at 120 h [1] [µM] | EC50 [5] [µM]
N#C[C@]1(CO)O[C@@H](c2ccc3c(N)ncnn23)[C@H](F)[C@@H]1O | 0.086 | < 0.1 | < 0.1 | > 114 | 2
Nc1ncnc2c1ncn2[C@@H]1O[C@H](CO)[C@@H](O)[C@H]1F [2'-BETA-FLUORO-2',3'-DEOXYADENOSINE] | 7.7 | 24 | 8 | – | > 50
C=C[C@]1(CO)O[C@@H](c2ccc3c(N)ncnn23)[C@H](F)[C@@H]1O | 0.6 | 2.9 | 10 | > 114 | 10
Nc1ncnn2c([C@@H]3O[C@H](CO)[C@@H](O)[C@H]3F)ccc12 | 0.6 | 22 | 2.5 | 26 | > 100
Nc1nc(O)c2ncn([C@@H]3O[C@H](CO)[C@@H](O)[C@H]3F)c2n1 | 6.6 | 21 | 34 | – | > 200
Nc1nc2c(ncn2[C@@H]2O[C@H](CO)[C@@H](O)[C@H]2F)c(=O)[nH]1 | – | – | – | > 49 | –
CC(C)C(=O)OC[C@@]1(N=[N+]=[N-])O[C@@H](n2ccc(N)nc2=O)[C@H](OC(=O)C(C)C)[C@@H]1OC(=O)C(C)C | – | 112 | – | – | –
O=c1ccn([C@@H]2O[C@H](CO)[C@@H](O)[C@H]2F)c(=O)[nH]1 | 3.5 | 37 | 11 | – | > 100
O=c1[nH]c(=O)n([C@@H]2O[C@H](CO)[C@@H](O)[C@@H]2F)cc1I | – | – | 99 | – | –

Continued, in another order:

IC50 [2] [µM] | inhibition [3] [%] | inhibition [4] [%] | Compound | CC50 at 120 h [1] [µM] | EC50 [5] [µM]
0.5 | 0.1 | 5.7 | CC[C@]1(CO)O[C@@H](c2ccc3c(N)ncnn23)[C@H](F)[C@@H]1O | > 114 | 41
1 | 0 | 41 | Nc1ccn([C@@H]2O[C@@](CO)(CCl)[C@@H](O)[C@H]2F)c(=O)n1 [ALS-8112] | 21 | 0.92
12 | 1 | 1 | C=C[C@]1(CO)O[C@@H](n2cnc3c(=O)[nH]c(N)nc32)[C@H](F)[C@@H]1O | 46 | 17
2.6 | 0 | 3 | N#C[C@]1(CO)O[C@@H](n2cnc3c(=O)[nH]c(N)nc32)[C@H](F)[C@@H]1O | 24 | 10
0.6 | 1.2 | 4.9 | C=C[C@]1(CO)O[C@@H](n2ccc(N)nc2=O)[C@H](F)[C@@H]1O | > 57 | > 50
0.6 | 0 | 6 | CC[C@]1(CO)O[C@@H](n2ccc(N)nc2=O)[C@H](F)[C@@H]1O | > 57 | 8
1.8 | 20 | 17 | Nc1ccn([C@@H]2O[C@H](CO)[C@@H](O)[C@H]2F)c(=O)n1 | 3.8 | > 200
0.3 | 3 | 7 | [N-]=[N+]=N[C@]1(CO)O[C@@H](n2ccc(N)nc2=O)[C@H](F)[C@@H]1O | 23 | 3.5
1.8 | 18 | 5 | C#C[C@]1(CO)O[C@@H](n2cnc3c(=O)[nH]c(N)nc32)[C@H](F)[C@@H]1O | 39 | 26
